Source: PubChem BioAssay (NCI)
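Exposure lasted 48 hours, with cells grown in 96-well plates and compounds tested at five concentrations. GI50: concentration for 50% inhibition of growth. TGI marks complete inhibition of growth.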

Legend:
Assay in all cases: growth of human tumour cells (NCI), 48 h
786-0 renal = test system: 786-0 renal
DMS 114 small cell lung = test system: DMS 114 small cell lung
DMS 273 small cell lung = test system: DMS 273 small cell lung
KM12 colon = test system: KM12 colon
OVCAR-8 ovarian = test system: OVCAR-8 ovarian
SF-295 CNS = test system: SF-295 CNS
SK-MEL-28 melanoma = test system: SK-MEL-28 melanoma
U251 CNS = test system: U251 CNS
UACC-62 melanoma = test system: UACC-62 melanoma
MCF7 breast = test system: MCF7 breast

SMILES	TGI (786-0 renal) [µM]	TGI (DMS 114 small cell lung) [µM]	TGI (DMS 273 small cell lung) [µM]	TGI (KM12 colon) [µM]	TGI (OVCAR-8 ovarian) [µM]	TGI (SF-295 CNS) [µM]	TGI (SK-MEL-28 melanoma) [µM]	TGI (U251 CNS) [µM]	TGI (UACC-62 melanoma) [µM]	GI50 (786-0 renal) [µM]	GI50 (KM12 colon) [µM]	GI50 (MCF7 breast) [µM]	TGI (MCF7 breast) [µM]	GI50 (OVCAR-8 ovarian) [µM]	GI50 (SF-295 CNS) [µM]	GI50 (SK-MEL-28 melanoma) [µM]	GI50 (U251 CNS) [µM]	GI50 (UACC-62 melanoma) [µM]
CN(C)CCNC(=O)c1cccc2ccc(-c3ccc(-c4ccccc4)cc3)nc12	3.39	3.07	3.24	5.6	7.66	4.03	3.29	4.65	32.2	–	–	–	–	–	–	–	–	–
O=C(C/C(CCC(=O)N(Cc1ccccc1)Cc1ccccc1)=N/Nc1ccc([N+](=O)[O-])cc1[N+](=O)[O-])c1ccccc1	> 100	> 100	> 100	> 100	> 100	> 100	> 100	> 100	> 100	–	–	–	–	–	–	–	–	–
COc1cc2c(cc1C1=NC(C)(C)CO1)OCO2	> 100	> 100	–	> 100	> 100	> 100	> 100	> 100	> 100	–	–	–	–	–	–	–	–	–
COc1ccc(Nc2nc3cc(N)cc(N)c3nc2-c2ccccc2)cc1OC	90.3	–	–	32	> 100	45.3	49.7	> 100	27.4	23.8	14.8	20.5	44.8	33.6	16.9	21.5	26	13.4
COc1ccc(N(/C=C/C(=O)C(F)(F)F)CC(=O)c2ccc(Cl)cc2)cc1	57.8	–	–	32.8	40	31.7	36.2	26.7	20.7	20.7	11.7	18.4	> 100	13.5	13.6	18.1	13.7	8.34
Cc1cc(Nc2cc(N3CCN(C)CC3)nc(Sc3ccc(NC(=O)C4CC4)cc3)n2)n[nH]1	> 10	–	–	> 10	> 10	> 10	> 10	> 10	> 10	> 10	0.0461	0.492	> 10	7.54	1.28	3.47	3.05	1.53
CC[N+](C)(CC)CC(C)(C)C(=O)/C=C/c1ccc(/C=C/C(=O)C(C)(C)C[N+](C)(CC)CC)cc1	> 100	> 100	> 100	> 100	> 100	> 100	> 100	> 100	> 100	–	–	–	–	–	–	–	–	–
N#Cc1ccc2cc3c(cc2c1)OCO3	> 100	> 100	> 100	> 100	–	> 100	> 100	> 100	> 100	–	–	–	–	–	–	–	–	–
Cc1cccc(NC(=O)/C=C/c2ccc([N+](=O)[O-])cc2)c1	> 51.2	–	–	> 52.8	> 53.7	> 58	> 57.6	> 52.9	> 58.5	–	–	–	> 43.9	–	–	–	–	–
O=C1c2ccccc2C(=O)c2sc(Nc3ccccc3Cl)nc21	27.9	–	31.9	29.6	20.3	30.1	30.2	19.5	17.3	–	–	–	40.6	–	–	–	–	–
C#COc1cccc(Nc2ncnc3cc(NC(=O)[C@H](C)Cl)ccc23)c1	> 62.5	–	–	> 62.5	> 62.5	61.1	> 62.5	> 62.5	> 62.5	3.24	2.44	6.08	> 62.5	4.5	2.28	4.71	2.84	2.96
O=C(NCc1ccco1)c1cccc(NC2=C(Cl)C(=O)N(Cc3ccccc3)C2=O)c1	16.3	–	–	24.5	> 100	9.4	46.6	60.5	33.3	3.94	6.49	11.5	> 100	8.57	1.81	16.4	11.5	12.6
COc1cc(-n2ccnc2)cc(OC)c1OC	> 100	–	–	> 100	> 100	63.1	> 100	> 100	> 100	39.1	43.2	41.7	> 100	56.8	20.9	> 100	58.6	36
Nc1nc(=O)n([C@@H]2CS[C@H](CO)O2)cc1F	> 100	–	–	> 100	> 100	> 100	> 100	> 100	> 100	> 100	> 100	> 100	> 100	> 100	> 100	> 100	> 100	> 100
CC1NC(=O)C2=C1C(N)=NC(=O)C2 (stereo unspecified)	> 100	> 100	> 100	> 100	> 100	> 100	> 100	> 100	> 100	–	–	–	–	–	–	–	–	–
